Source: ChEMBL document CHEMBL1201862, “PubChem BioAssay data set” (2004)
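1) Cells in 96-well plates. 2) Compound, 48 h, 5 concentrations. 3) Linear interpolation between surrounding doses. 4) Unreached endpoint = highest concentration. GI50 = concentration required for 50% inhibition of growth.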 Calls of active or inactive are those of the source. Rule as the data show it: active = GI50 up to about 1.1 µM and inactive = higher.

Experiments:
Assay in all cases: NCI tumour cell line growth inhibition, 48 h
OVCAR-8 = tested on: OVCAR-8
M14 = tested on: M14
OVCAR-5 = tested on: OVCAR-5
SW-620 = tested on: SW-620
DMS-114 = tested on: DMS-114
NCI-H23 = tested on: NCI-H23
786-0 = tested on: 786-0
A549 = tested on: A549
SK-MEL-2 = tested on: SK-MEL-2
SNB-78 = tested on: SNB-78
COLO 205 = tested on: COLO 205
ACHN = tested on: ACHN
KM12 = tested on: KM12
CCRF-CEM = tested on: CCRF-CEM
MDA-MB-231 = tested on: MDA-MB-231
Hs-578T = tested on: Hs-578T
MDA-N = tested on: MDA-N
SR = tested on: SR
DU-145 = tested on: DU-145
BT-549 = tested on: BT-549

Structure (SMILES): O=C(CC1(O)C(=O)Nc2ccccc21)c1ccc2ccccc2c1 (stereo not given)
- GI50 (OVCAR-8): > 100 µM (inactive)
- GI50 (M14): > 100 µM (inactive)
- GI50 (OVCAR-5): > 100 µM (inactive)
- GI50 (SW-620): > 100 µM (inactive)
- GI50 (DMS-114): > 100 µM (inactive)
- GI50 (NCI-H23): > 100 µM (inactive)
- GI50 (786-0): > 100 µM (inactive)
- GI50 (A549): > 100 µM (inactive)
- GI50 (SK-MEL-2): > 100 µM (inactive)
- GI50 (SNB-78): > 100 µM (inactive)
- GI50 (COLO 205): > 100 µM (inactive)
- GI50 (ACHN): > 100 µM (inactive)

Structure (SMILES): CCOC(=O)C1=C(C(C)=O)CSC(c2ccccc2)=N1
- GI50 (OVCAR-8): > 100 µM (inactive)
- GI50 (OVCAR-5): > 100 µM (inactive)
- GI50 (SW-620): > 100 µM (inactive)
- GI50 (DMS-114): > 100 µM (inactive)
- GI50 (NCI-H23): 98.4 µM (inactive)
- GI50 (KM12): > 100 µM (inactive)
- GI50 (A549): > 100 µM (inactive)
- GI50 (SK-MEL-2): > 100 µM (inactive)
- GI50 (SNB-78): > 63.2 µM (inactive)
- GI50 (COLO 205): > 100 µM (inactive)
- GI50 (CCRF-CEM): > 100 µM (inactive)

Structure (SMILES): O=C(OCCN=C1c2ccccc2CCc2ccccc21)c1ccccc1
- GI50 (OVCAR-8): > 100 µM (inactive)
- GI50 (M14): > 100 µM (inactive)
- GI50 (OVCAR-5): > 100 µM (inactive)
- GI50 (SW-620): > 100 µM (inactive)
- GI50 (MDA-MB-231): > 100 µM (inactive)
- GI50 (NCI-H23): > 100 µM (inactive)
- GI50 (Hs-578T): > 100 µM (inactive)
- GI50 (MDA-N): > 100 µM (inactive)
- GI50 (SR): 18 µM (inactive)
- GI50 (KM12): > 100 µM (inactive)
- GI50 (786-0): > 100 µM (inactive)
- GI50 (A549): > 100 µM (inactive)
- GI50 (SK-MEL-2): > 100 µM (inactive)
- GI50 (DU-145): > 100 µM (inactive)
- GI50 (COLO 205): > 100 µM (inactive)
- GI50 (BT-549): > 100 µM (inactive)
- GI50 (ACHN): > 100 µM (inactive)
- GI50 (CCRF-CEM): > 100 µM (inactive)

Structure (SMILES): NCc1ccccc1C1CSCSC1
- GI50 (OVCAR-8): > 100 µM (inactive)
- GI50 (SW-620): > 100 µM (inactive)
- GI50 (DMS-114): > 100 µM (inactive)
- GI50 (NCI-H23): > 100 µM (inactive)
- GI50 (KM12): > 100 µM (inactive)
- GI50 (A549): > 100 µM (inactive)
- GI50 (SK-MEL-2): > 100 µM (inactive)
- GI50 (SNB-78): > 100 µM (inactive)
- GI50 (ACHN): > 100 µM (inactive)
- GI50 (CCRF-CEM): > 100 µM (inactive)

Structure (SMILES): Cc1nc2cc(/N=N/c3c(C)noc3C)ccc2[nH]1
- GI50 (OVCAR-8): 24.5 µM (inactive)
- GI50 (M14): 26.5 µM (inactive)
- GI50 (OVCAR-5): 28 µM (inactive)
- GI50 (SW-620): 24.8 µM (inactive)
- GI50 (MDA-MB-231): 28.2 µM (inactive)
- GI50 (NCI-H23): 35.3 µM (inactive)
- GI50 (Hs-578T): 16.5 µM (inactive)
- GI50 (MDA-N): 16.8 µM (inactive)
- GI50 (SR): 16.9 µM (inactive)
- GI50 (KM12): 49.8 µM (inactive)
- GI50 (786-0): 28.1 µM (inactive)
- GI50 (A549): 19.1 µM (inactive)
- GI50 (SK-MEL-2): 34.8 µM (inactive)
- GI50 (DU-145): 27.7 µM (inactive)
- GI50 (COLO 205): 15.1 µM (inactive)
- GI50 (BT-549): 22.2 µM (inactive)
- GI50 (ACHN): 25.1 µM (inactive)
- GI50 (CCRF-CEM): 25.2 µM (inactive)

Structure (SMILES): O=C1Sc2ccccc2C(=O)N2CCSC12 (stereo not given)
- GI50 (OVCAR-8): > 100 µM (inactive)
- GI50 (M14): > 100 µM (inactive)
- GI50 (OVCAR-5): > 100 µM (inactive)
- GI50 (SW-620): > 100 µM (inactive)
- GI50 (DMS-114): > 100 µM (inactive)
- GI50 (NCI-H23): > 100 µM (inactive)
- GI50 (SR): > 100 µM (inactive)
- GI50 (KM12): > 100 µM (inactive)
- GI50 (SK-MEL-2): > 100 µM (inactive)
- GI50 (SNB-78): > 100 µM (inactive)
- GI50 (COLO 205): > 100 µM (inactive)
- GI50 (CCRF-CEM): > 100 µM (inactive)

Structure (SMILES): O=C(c1ccccc1O)c1cc(-c2ncc3c(=O)c4ccccc4oc3n2)c(-c2ccccc2O)[nH]c1=O
- GI50 (OVCAR-8): 30.7 µM (inactive)
- GI50 (OVCAR-5): 24 µM (inactive)
- GI50 (SW-620): 19.2 µM (inactive)
- GI50 (DMS-114): 28.8 µM (inactive)
- GI50 (NCI-H23): 19.7 µM (inactive)
- GI50 (KM12): 30 µM (inactive)
- GI50 (A549): 25.5 µM (inactive)
- GI50 (SK-MEL-2): 22.1 µM (inactive)
- GI50 (SNB-78): 34.2 µM (inactive)
- GI50 (COLO 205): 31.9 µM (inactive)
- GI50 (CCRF-CEM): 26 µM (inactive)

Structure (SMILES): Cc1cccc(C)c1NC(=O)CCc1nnc(S)[nH]1
- GI50 (OVCAR-8): > 100 µM (inactive)
- GI50 (M14): > 100 µM (inactive)
- GI50 (OVCAR-5): > 100 µM (inactive)
- GI50 (SW-620): > 100 µM (inactive)
- GI50 (DMS-114): > 100 µM (inactive)
- GI50 (NCI-H23): > 100 µM (inactive)
- GI50 (786-0): > 100 µM (inactive)
- GI50 (A549): > 100 µM (inactive)
- GI50 (SK-MEL-2): > 100 µM (inactive)
- GI50 (SNB-78): > 100 µM (inactive)
- GI50 (COLO 205): > 100 µM (inactive)
- GI50 (ACHN): > 100 µM (inactive)
- GI50 (CCRF-CEM): > 100 µM (inactive)

Structure (SMILES): O=C(/C=C/c1ccccc1O)/C=C/c1ccccc1O
- GI50 (OVCAR-8): 2.26 µM (inactive)
- GI50 (M14): 1.71 µM (inactive)
- GI50 (OVCAR-5): 1.49 µM (inactive)
- GI50 (SW-620): 0.966 µM (active)
- GI50 (MDA-MB-231): 2.48 µM (inactive)
- GI50 (NCI-H23): 1.53 µM (inactive)
- GI50 (Hs-578T): 2.7 µM (inactive)
- GI50 (MDA-N): 1.56 µM (inactive)
- GI50 (SR): 0.526 µM (active)
- GI50 (KM12): 1.06 µM (active)
- GI50 (786-0): 1.69 µM (inactive)
- GI50 (A549): 2.21 µM (inactive)
- GI50 (SK-MEL-2): 9.25 µM (inactive)
- GI50 (DU-145): 1.51 µM (inactive)
- GI50 (COLO 205): 1.73 µM (inactive)
- GI50 (BT-549): 1.24 µM (inactive)
- GI50 (ACHN): 1.8 µM (inactive)
- GI50 (CCRF-CEM): 0.305 µM (active)

Structure (SMILES): COC(=O)CC(=O)OSc1ccccc1
- GI50 (M14): 17.6 µM (inactive)
- GI50 (OVCAR-5): 45 µM (inactive)
- GI50 (SW-620): 18.1 µM (inactive)
- GI50 (DMS-114): 11.6 µM (inactive)
- GI50 (NCI-H23): 24.7 µM (inactive)
- GI50 (SR): 6.03 µM (inactive)
- GI50 (KM12): 25.5 µM (inactive)
- GI50 (A549): 12.5 µM (inactive)
- GI50 (SK-MEL-2): 34.6 µM (inactive)
- GI50 (COLO 205): 19.5 µM (inactive)
- GI50 (ACHN): 18.2 µM (inactive)
- GI50 (CCRF-CEM): 3.76 µM (inactive)
